Assay results taken from US7459480B2, “Benzodioxepine derivatives” (Hoffmann-La Roche Inc., priority 2003, dated 2008).

These compounds were tested against T1, human ACCβ (Homo sapiens, UniProt O00763) (assay: Radiometric ACCβ enzyme inhibition assay ([14C]NaHCO3 incorporation into malonyl-CoA)). Settings: human muscle-type ACCβ expressed in HEK293 cells; saturating substrate concentrations; 37° C., 45 min.
T1 construct: The cloning of the full length human muscle-type ACCβ cDNA and expression in HEK293 cells; made in house; host or cells: HEK293 cells (ATCC CRL-1573), transfected with plasmid pRF33D
T1 sequence (O00763 whole entry): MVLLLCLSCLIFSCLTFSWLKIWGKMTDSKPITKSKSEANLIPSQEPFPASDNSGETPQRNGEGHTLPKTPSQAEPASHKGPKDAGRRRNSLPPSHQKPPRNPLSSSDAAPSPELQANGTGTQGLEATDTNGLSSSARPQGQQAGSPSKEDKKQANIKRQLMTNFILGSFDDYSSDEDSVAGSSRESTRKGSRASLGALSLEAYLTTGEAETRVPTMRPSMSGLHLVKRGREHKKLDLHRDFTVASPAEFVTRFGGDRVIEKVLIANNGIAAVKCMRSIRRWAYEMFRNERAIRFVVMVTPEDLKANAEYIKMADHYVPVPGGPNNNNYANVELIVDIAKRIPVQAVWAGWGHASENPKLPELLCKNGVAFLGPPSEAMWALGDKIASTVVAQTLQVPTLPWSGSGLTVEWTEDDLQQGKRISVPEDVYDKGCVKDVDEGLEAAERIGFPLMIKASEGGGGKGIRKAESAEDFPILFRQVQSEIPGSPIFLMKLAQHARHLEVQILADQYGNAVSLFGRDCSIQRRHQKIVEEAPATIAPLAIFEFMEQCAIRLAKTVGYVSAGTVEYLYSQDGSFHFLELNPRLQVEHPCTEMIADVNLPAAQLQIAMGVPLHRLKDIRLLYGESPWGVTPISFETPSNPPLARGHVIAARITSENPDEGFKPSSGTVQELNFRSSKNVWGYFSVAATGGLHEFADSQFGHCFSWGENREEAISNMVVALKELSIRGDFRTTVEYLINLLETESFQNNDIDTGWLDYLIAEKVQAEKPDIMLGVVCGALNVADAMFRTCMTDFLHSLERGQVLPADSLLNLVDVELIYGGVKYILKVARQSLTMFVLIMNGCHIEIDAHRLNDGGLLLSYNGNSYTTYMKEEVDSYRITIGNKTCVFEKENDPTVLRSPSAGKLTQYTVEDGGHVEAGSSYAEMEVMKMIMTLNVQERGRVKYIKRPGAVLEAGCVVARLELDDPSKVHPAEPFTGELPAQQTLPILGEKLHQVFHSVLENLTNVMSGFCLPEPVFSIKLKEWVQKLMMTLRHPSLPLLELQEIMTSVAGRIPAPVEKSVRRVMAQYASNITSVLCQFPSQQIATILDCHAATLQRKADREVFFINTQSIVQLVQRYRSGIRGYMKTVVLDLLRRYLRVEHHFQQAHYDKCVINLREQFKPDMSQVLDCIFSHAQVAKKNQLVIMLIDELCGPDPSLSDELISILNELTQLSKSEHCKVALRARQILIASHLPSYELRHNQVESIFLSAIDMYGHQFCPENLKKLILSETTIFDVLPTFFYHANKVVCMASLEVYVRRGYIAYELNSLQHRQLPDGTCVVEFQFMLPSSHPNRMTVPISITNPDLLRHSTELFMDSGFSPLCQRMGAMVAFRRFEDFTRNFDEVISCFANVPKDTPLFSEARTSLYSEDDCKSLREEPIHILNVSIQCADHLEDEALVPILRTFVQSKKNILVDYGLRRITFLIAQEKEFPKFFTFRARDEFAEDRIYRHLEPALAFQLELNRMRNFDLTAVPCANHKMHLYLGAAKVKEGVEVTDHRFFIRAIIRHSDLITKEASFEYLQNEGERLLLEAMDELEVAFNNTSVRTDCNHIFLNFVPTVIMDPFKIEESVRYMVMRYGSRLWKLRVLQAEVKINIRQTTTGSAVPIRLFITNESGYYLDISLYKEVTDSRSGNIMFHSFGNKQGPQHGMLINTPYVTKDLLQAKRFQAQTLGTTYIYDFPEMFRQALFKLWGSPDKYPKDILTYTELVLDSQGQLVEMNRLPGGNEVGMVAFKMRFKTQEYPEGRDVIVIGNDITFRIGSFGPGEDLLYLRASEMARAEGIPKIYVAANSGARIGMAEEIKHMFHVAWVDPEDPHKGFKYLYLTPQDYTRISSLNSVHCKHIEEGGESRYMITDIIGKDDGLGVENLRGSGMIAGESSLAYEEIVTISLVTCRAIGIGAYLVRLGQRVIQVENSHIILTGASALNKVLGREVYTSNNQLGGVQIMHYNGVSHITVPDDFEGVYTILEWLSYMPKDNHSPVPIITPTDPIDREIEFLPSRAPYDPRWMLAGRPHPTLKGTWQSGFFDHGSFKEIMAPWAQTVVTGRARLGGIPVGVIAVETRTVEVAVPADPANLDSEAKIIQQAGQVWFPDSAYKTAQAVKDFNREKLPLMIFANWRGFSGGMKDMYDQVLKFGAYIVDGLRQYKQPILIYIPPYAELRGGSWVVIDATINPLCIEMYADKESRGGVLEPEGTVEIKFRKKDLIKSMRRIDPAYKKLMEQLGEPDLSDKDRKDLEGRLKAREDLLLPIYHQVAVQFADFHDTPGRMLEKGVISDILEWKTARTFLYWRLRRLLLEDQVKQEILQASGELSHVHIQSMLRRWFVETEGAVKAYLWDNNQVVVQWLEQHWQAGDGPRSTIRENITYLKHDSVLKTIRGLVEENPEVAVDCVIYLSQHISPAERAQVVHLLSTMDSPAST
Type: biochemical
Experimental: Production and Characterization of Human ACCβ Enzyme, Its Use in ACC Activity Assays and for Inhibition Studies
The cloning of the full length human muscle-type ACCβ cDNA and expression in HEK293 cells (ATCC, # CRL-1573) was performed as follows. The ACCβ cDNA was amplified by the polymerase chain reaction (PCR) and was cloned using standard recombinant DNA techniques. The PCR reaction was performed with the Expand Long Template PCR System (Roche Molecular Biochemicals, # 1 681 8340) and 0.5 ng of cDNA from human skeletal muscle as template. The primers used for PCR amplification were designed on the basis of the published sequence of the human ACCβ cDNA isolated from a human liver cDNA library (Abul-Elheiga et al. J. Biol. Chem. 272, 10669-10677, 1997). The sequence of the forward primer ACCB1 was 5′-[…]-3′; it includes a NheI restriction cleavage site for subcloning and a Kozak translation initiation consensus sequence preceding the ATG start codon. The sequence of the reverse primer ACCB8 was 5′-[…]-3′; it includes a stop codon and a XhoI restriction cleavage site for subcloning. The amplified DNA fragment of approximately 7.4 kb was cloned into a mammalian expression vector. The resulting plasmid isolates, pRF33A, B, C, D, and E were individually transfected in human embryonic kidney 293 cells (HEK293) using a standard lipid transfection method. Cell extracts of transfected cells were prepared in a lysis buffer containing 0.4 mg/ml digitonin and enzyme activity was determined using a radiometric ACC activity assay as described below. Plasmid pRF33D gave the highest activity and was chosen for large scale transfections of HEK293 cells and enzyme purification.
Since ACC enzyme activities in crude cell lysates were very low, enrichment of ACCβ enzyme expressed in HEK293 cells was achieved by a single anion exchange chromatography step. Cell lysates were run over a 5 ml Econo Pac High Q column (Bio-Rad, # 732-0027). Bound proteins were eluted by a gradient of NaCl from 0 to 1 M in 50 mM Tris-HCl, pH 7.5, 1 mM DTT, 5% glycerol. Fractions containing high ACCβ enzyme activity were pooled and stored at −20° C.
Standard ACCβ enzyme assays, in a total volume of 100 μl, contained 50 mM HEPES-KOH, pH 7.5, 10 mM K-citrate, 10 mM MgSO4, 1 mM ATP, 0.1 mM DTT, 2% DMSO, 0.1 mg/ml fatty acid-free BSA, 0.2 mM acetyl-CoA, 2 mM KHCO3, 0.2 mM [^14C]NaHCO3 (50-60 mCi/mmol) and cell lysate or purified ACCβ enzyme. Reactions were incubated at 37° C. for 45 min. and stopped by the addition of 50 μl of 2 N HCl. Terminated reactions were incubated at 50° C. over night to evaporate non-incorporated [^14C]NaHCO3. [^14C]-labeled malonyl-CoA reaction product was quantitated by liquid scintillation counting after the addition of 20 μl of Microscint 20 (Canberra Packard, # 6013621) on a TopCount NXT microplate scintillation counter (Canberra Packard).
Inhibition of ACCβ activity was determined at saturating substrate concentrations with two-fold serial dilutions of test compounds spanning a concentration range of at least two log units. IC50 values were calculated with the GraFit software (Erithacus Software Ltd.).

**Q.** `COc1cccc(C#Cc2ccc3c(c2)OCC(C)(C)CO3)c1` [Example 5, 7-(3-Methoxy-phenylethynyl)-3,3-dimethyl-3,4-dihydro-2H-benzo[b][1,4]dioxepine] was tested. Which IC50 did it give?
**A.** 42.2 µM

**Q.** For `CCOc1ccc(C#Cc2ccc3c(c2)OCC(C)(C)CO3)cc1` [Example 7, 7-(4-Ethoxy-phenylethynyl)-3,3-dimethyl-3,4-dihydro-2H-benzo[b][1,4]dioxepine], which IC50 is on record?
**A.** 1.44 µM

**Q.** For `CC1(C)COc2ccc(C#Cc3ccc4c(c3)CCO4)cc2OC1` [Example 9, 7-(2,3-Dihydro-benzofuran-5-ylethynyl)-3,3-dimethyl-3,4-dihydro-2H-benzo[b][1,4]dioxepine], which IC50 is on record?
**A.** 15.1 µM

**Q.** How did the IC50 turn out when `CCOC(=O)c1ccc(C#Cc2ccc3c(c2)OCC(C)(C)CO3)cn1` [Example 13, 5-(3,3-Dimethyl-3,4-dihydro-2H-benzo[b][1,4]dioxepin-7-ylethynyl)-pyridine-2-carboxylic acid ethyl ester] was run?
**A.** 5.41 µM

**Q.** Which IC50 does the source give for `Cn1nnc(-c2ccc(C#Cc3ccc4c(c3)OCC(C)(C)CO4)cc2)n1` [Example 14, 5-[4-(3,3-Dimethyl-3,4-dihydro-2H-benzo[b][1,4]dioxepin-7-ylethynyl)-phenyl]-2-methyl-2H-tetrazole] here?
**A.** 11.2 µM

**Q.** Which IC50 does the source give for `CCOC(=O)c1cccc(C#Cc2ccc3c(c2)OCC(C)(C)CO3)c1` [Example 15, 3-(3,3-Dimethyl-3,4-dihydro-2H-benzo[b][1,4]dioxepin-7-ylethynyl)-benzoic acid ethyl ester] here?
**A.** 3.11 µM

**Q.** With `CCCOc1ccc(C#Cc2ccc3c(c2)OCC(C)(C)CO3)cc1` [Example 21, 3,3-Dimethyl-7-(4-propoxy-phenylethynyl)-3,4-dihydro-2H-benzo[b][1,4]dioxepine] as the compound, how does the IC50 read?
**A.** 0.01 µM

**Q.** How did the IC50 turn out when `CCOC(=O)c1ccc(OCc2ccc3c(c2)OCC(C)(C)CO3)cc1` [Example 23, 4-(3,3-Dimethyl-3,4-dihydro-2H-benzo[b][1,4]dioxepin-7-ylmethoxy)-benzoic acid ethyl ester] was run?
**A.** 0.25 µM
